Experimental data reported in US10376520B2, “Methods for the treatment of cardiovascular disorders” (Galapagos NV, priority 2015, dated 2019).

Test system: RA patients
Test: LDL determination, Study 1 (RA patients, add-on to MTX)
Type: in vivo, human
Description: Double-blind, placebo-controlled add on study in subjects with moderately to severely active RA who have an inadequate response to methotrexate (MTX) (oral or parenteral).
595 subjects randomized to one of 6 dose regimens of Compound 1 (dosed as a [Compound 1:HCl:3H2O]) (3 dose levels administered either once or twice daily) or placebo on top of each subject's stable dose of MTX.
Compound 1 (dosed as a [Compound 1:HCl:3H2O]) is dosed for twelve weeks once daily (q.d.) (50 mg, 100 mg or 200 mg) or twice daily (b.i.d.) (25 mg, 50 mg or 100 mg); or placebo.
At Week 12, the subjects on placebo who have not achieved 20% improvement in swollen joint count (SJC66) and tender joint count (TJC68) are re-randomized automatically to receive Compound 1 (dosed as a [Compound 1:HCl:3H2O]) either at 100 mg q.d. or 50 mg b.i.d. doses in a blinded fashion; subjects on 50 mg q.d. who have not achieved 20% improvement in SJC66 and TJC68 will be assigned to 100 mg q.d. and subjects on 25 mg b.i.d. that have not achieved a 20% improvement in SJC66 and TJC68 will be assigned to 50 mg b.i.d. Subjects who switch treatment at week 12 are handled as if they discontinued at week 12 for the purpose of statistical analysis, whereas subjects in the other groups will maintain their randomized treatment until Week 24.
The determination of [LDL]-cholesterol is made using an automated method taking advantage of the selective micellary solubilization of [LDL]-cholesterol by a nonionic detergent and the interaction of a sugar compound and lipoproteins (VLDL and chylomicrons).
When a detergent is included in the enzymatic method for cholesterol determination (cholesterol esterase, cholesterol oxidase coupling reaction), the relative reactivities of cholesterol in the lipoprotein fractions increase in this order: [HDL]<chylomicrons <VLDL <[LDL]. In the presence of Mg^2+, a sugar compound markedly reduces the enzymatic reaction of the cholesterol measurement in VLDL and chylomicrons. The combination of a sugar compound with detergent enables the selective determination of [LDL]-cholesterol in serum. (Friedewald et al., 1972; Rifai et al., 1992)
Homogeneous enzymatic colorimetric assay.
In the presence of peroxidase, the hydrogen peroxide generated reacts with 4-aminoantipyrine and Sodium N-(2-hydroxy-3-sulfopropyl)-3,5-dimethoxyaniline (HSDA) to form a purple-blue dye.
The color intensity of this dye is directly proportional to the cholesterol concentration and is measured photometrically.
Human serum and plasma samples [LDL] determination was done on a Roche/Hitachi Cobas c 701/702 system which automatically calculate the analyte concentration of each sample. Samples containing precipitates are centrifuged before performing the assay.

[1] = Study 1 12 weeks results, 200 mg q.d., week 2
[2] = Study 1 12 weeks results, 200 mg q.d., week 4
[3] = Study 1 12 weeks results, 200 mg q.d., week 8
[4] = Study 1 12 weeks results, 200 mg q.d., week 12
[5] = Study 1 12 weeks results, 2 x 25 mg b.i.d., week 1
[6] = Study 1 12 weeks results, 2 x 25 mg b.i.d., week 2
[7] = Study 1 12 weeks results, 2 x 25 mg b.i.d., week 4
[8] = Study 1 12 weeks results, 2 x 25 mg b.i.d., week 8
[9] = Study 1 12 weeks results, 2 x 25 mg b.i.d., week 12
[10] = Study 1 12 weeks results, 2 x 50 mg b.i.d., week 1
[11] = Study 1 12 weeks results, 2 x 50 mg b.i.d., week 2
[12] = Study 1 12 weeks results, 2 x 50 mg b.i.d., week 4
[13] = Study 1 12 weeks results, 2 x 50 mg b.i.d., week 8
[14] = Study 1 12 weeks results, 2 x 50 mg b.i.d., week 12
[15] = Study 1 12 weeks results, 2 x 100 mg b.i.d., week 1
[16] = Study 1 12 weeks results, 2 x 100 mg b.i.d., week 2
[17] = Study 1 12 weeks results, 2 x 100 mg b.i.d., week 4
[18] = Study 1 12 weeks results, 2 x 100 mg b.i.d., week 8
[19] = Study 1 12 weeks results, 2 x 100 mg b.i.d., week 12
[20] = Study 1 24 weeks results, continued 50 mg q.d., week 1
[21] = Study 1 24 weeks results, continued 50 mg q.d., week 2
[22] = Study 1 24 weeks results, continued 50 mg q.d., week 4
[23] = Study 1 24 weeks results, continued 50 mg q.d., week 8
[24] = Study 1 24 weeks results, continued 50 mg q.d., week 12
[25] = Study 1 24 weeks results, continued 50 mg q.d., week 16
[26] = Study 1 24 weeks results, continued 50 mg q.d., week 20
[27] = Study 1 24 weeks results, continued 50 mg q.d., week 24
[28] = Study 1 24 weeks results, continued 100 mg q.d., week 1
[29] = Study 1 24 weeks results, continued 100 mg q.d., week 2
[30] = Study 1 24 weeks results, continued 100 mg q.d., week 4
[31] = Study 1 24 weeks results, continued 100 mg q.d., week 8
[32] = Study 1 24 weeks results, continued 100 mg q.d., week 12
[33] = Study 1 24 weeks results, continued 100 mg q.d., week 16
[34] = Study 1 24 weeks results, continued 100 mg q.d., week 20
[35] = Study 1 24 weeks results, continued 100 mg q.d., week 24
[36] = Study 1 24 weeks results, continued 200 mg q.d., week 24
[37] = Study 1 24 weeks results, placebo switched to 50 mg b.i.d at week 12, week 16
[38] = Study 1 24 weeks results, placebo switched to 50 mg b.i.d at week 12, week 20
[39] = Study 1 24 weeks results, placebo switched to 50 mg b.i.d at week 12, week 24

Compound: O=C(Nc1nc2cccc(-c3ccc(CN4CCS(=O)(=O)CC4)cc3)n2n1)C1CC1 [Compound 1, cyclopropanecarboxylic acid {5-[4-(1,1-dioxo-thiomorpholin-4-ylmethyl)-phenyl]-[1,2,4]triazolo[1,5-a]pyridin-2yl}-amide]
- [LDL] Mean CFB [1]: 0.11 mmol/L
- [LDL] Median CFB [1]: 0.13 mmol/L
- [LDL] Mean CFB [2]: 0.13 mmol/L
- [LDL] Median CFB [2]: 0.09 mmol/L
- [LDL] Mean CFB [3]: 0.16 mmol/L
- [LDL] Median CFB [3]: 0.18 mmol/L
- [LDL] Mean CFB [4]: 0.19 mmol/L
- [LDL] Median CFB [4]: 0.14 mmol/L
- [LDL] Mean CFB [5]: 0.04 mmol/L
- [LDL] Median CFB [5]: 0.05 mmol/L
- [LDL] Mean CFB [6]: 0.04 mmol/L
- [LDL] Median CFB [6]: 0.09 mmol/L
- [LDL] Mean CFB [7]: -0.01 mmol/L
- [LDL] Median CFB [7]: -0.01 mmol/L
- [LDL] Mean CFB [8]: -0.05 mmol/L
- [LDL] Median CFB [8]: 0.01 mmol/L
- [LDL] Mean CFB [9]: 0.07 mmol/L
- [LDL] Median CFB [9]: 0.05 mmol/L
- [LDL] Mean CFB [10]: 0.10 mmol/L
- [LDL] Median CFB [10]: 0.17 mmol/L
- [LDL] Mean CFB [11]: 0.04 mmol/L
- [LDL] Median CFB [11]: 0.1 mmol/L
- [LDL] Mean CFB [12]: 0.14 mmol/L
- [LDL] Median CFB [12]: 0.05 mmol/L
- [LDL] Mean CFB [13]: 0.07 mmol/L
- [LDL] Median CFB [13]: 0.10 mmol/L
- [LDL] Mean CFB [14]: 0.05 mmol/L
- [LDL] Median CFB [14]: 0.02 mmol/L
- [LDL] Mean CFB [15]: 0.20 mmol/L
- [LDL] Median CFB [15]: 0.18 mmol/L
- [LDL] Mean CFB [16]: 0.15 mmol/L
- [LDL] Median CFB [16]: 0.08 mmol/L
- [LDL] Mean CFB [17]: 0.17 mmol/L
- [LDL] Median CFB [17]: 0.12 mmol/L
- [LDL] Mean CFB [18]: 0.31 mmol/L
- [LDL] Median CFB [18]: 0.22 mmol/L
- [LDL] Mean CFB [19]: 0.27 mmol/L
- [LDL] Median CFB [19]: 0.26 mmol/L
- [LDL] Mean CFB [20]: 0.00 mmol/L
- [LDL] Median CFB [20]: -0.01 mmol/L
- [LDL] Mean CFB [21]: -0.02 mmol/L
- [LDL] Median CFB [21]: 0.02 mmol/L
- [LDL] Mean CFB [22]: 0.02 mmol/L
- [LDL] Median CFB [22]: -0.01 mmol/L
- [LDL] Mean CFB [23]: 0.08 mmol/L
- [LDL] Median CFB [23]: 0.13 mmol/L
- [LDL] Mean CFB [24]: 0.16 mmol/L
- [LDL] Median CFB [24]: 0.14 mmol/L
- [LDL] Mean CFB [25]: 0.15 mmol/L
- [LDL] Median CFB [25]: 0.12 mmol/L
- [LDL] Mean CFB [26]: 0.14 mmol/L
- [LDL] Median CFB [26]: 0.20 mmol/L
- [LDL] Mean CFB [27]: 0.13 mmol/L
- [LDL] Median CFB [27]: 0.14 mmol/L
- [LDL] Mean CFB [28]: 0.11 mmol/L
- [LDL] Median CFB [28]: 0.10 mmol/L
- [LDL] Mean CFB [29]: 0.01 mmol/L
- [LDL] Median CFB [29]: 0.02 mmol/L
- [LDL] Mean CFB [30]: 0.13 mmol/L
- [LDL] Median CFB [30]: 0.13 mmol/L
- [LDL] Mean CFB [31]: 0.03 mmol/L
- [LDL] Median CFB [31]: 0.04 mmol/L
- [LDL] Mean CFB [32]: 0.12 mmol/L
- [LDL] Median CFB [32]: 0.13 mmol/L
- [LDL] Mean CFB [33]: -0.01 mmol/L
- [LDL] Median CFB [33]: 0.03 mmol/L
- [LDL] Mean CFB [34]: -0.01 mmol/L
- [LDL] Median CFB [34]: 0.02 mmol/L
- [LDL] Mean CFB [35]: 0.03 mmol/L
- [LDL] Median CFB [35]: 0.03 mmol/L
- [LDL] Mean CFB [36]: 0.13 mmol/L
- [LDL] Median CFB [36]: 0.17 mmol/L
- [LDL] Mean CFB [37]: 0.07 mmol/L
- [LDL] Median CFB [37]: 0.16 mmol/L
- [LDL] Mean CFB [38]: 0.13 mmol/L
- [LDL] Median CFB [38]: 0.06 mmol/L
- [LDL] Mean CFB [39]: -0.01 mmol/L
- [LDL] Median CFB [39]: 0.22 mmol/L
- [LDL] Mean percentage CFB - 24 weeks results (increased from 25 mg b.i.d. to 50 mg b.i.d at 12 weeks, week 1): 2.10%
- [LDL] Mean percentage CFB - 24 weeks results (increased from 25 mg b.i.d. to 50 mg b.i.d at 12 weeks, week 2): 4.27%
- [LDL] Mean percentage CFB - 24 weeks results (increased from 25 mg b.i.d. to 50 mg b.i.d at 12 weeks, week 4): −3.29%
- [LDL] Mean percentage CFB - 24 weeks results (increased from 25 mg b.i.d. to 50 mg b.i.d at 12 weeks, week 8): −5.79%
- [LDL] Mean percentage CFB - 24 weeks results (increased from 25 mg b.i.d. to 50 mg b.i.d at 12 weeks, week 12): −0.19%
- [LDL] Mean percentage CFB - 24 weeks results (increased from 25 mg b.i.d. to 50 mg b.i.d at 12 weeks, week 16): 3.55%
- [LDL] Mean percentage CFB - 24 weeks results (increased from 25 mg b.i.d. to 50 mg b.i.d at 12 weeks, week 20): −8.82%
- [LDL] Mean percentage CFB - 24 weeks results (increased from 25 mg b.i.d. to 50 mg b.i.d at 12 weeks, week 24): 2.65%
- [LDL] Mean percentage CFB - 24 weeks results (increased from 50 mg q.d. to 100 mg q.d. at 12 weeks, week 1): 0.31%
- [LDL] Mean percentage CFB - 24 weeks results (increased from 50 mg q.d. to 100 mg q.d. at 12 weeks, week 2): 4.52%
- [LDL] Mean percentage CFB - 24 weeks results (increased from 50 mg q.d. to 100 mg q.d. at 12 weeks, week 4): −1.68%
- [LDL] Mean percentage CFB - 24 weeks results (increased from 50 mg q.d. to 100 mg q.d. at 12 weeks, week 8): 1.20%
- [LDL] Mean percentage CFB - 24 weeks results (increased from 50 mg q.d. to 100 mg q.d. at 12 weeks, week 12): 2.96%
- [LDL] Mean percentage CFB - 24 weeks results (increased from 50 mg q.d. to 100 mg q.d. at 12 weeks, week 16): 4.69%
- [LDL] Mean percentage CFB - 24 weeks results (increased from 50 mg q.d. to 100 mg q.d. at 12 weeks, week 20): 3.51%
- [LDL] Mean percentage CFB - 24 weeks results (increased from 50 mg q.d. to 100 mg q.d. at 12 weeks, week 24): 4.92%
- [LDL] Mean percentage CFB - 24 weeks results (placebo switched to 50 mg b.i.d at week 12, week 16): 4.13%
- [LDL] Mean percentage CFB - 24 weeks results (placebo switched to 50 mg b.i.d at week 12, week 20): 6.69%
- [LDL] Mean percentage CFB - 24 weeks results (placebo switched to 50 mg b.i.d at week 12, week 24): 2.68%
- [LDL] Mean percentage CFB - 24 weeks results (placebo switched to 100 mg q.d. at week 12, week 16): −2.85%
- [LDL] Mean percentage CFB - 24 weeks results (placebo switched to 100 mg q.d. at week 12, week 20): −1.07%
- [LDL] Mean percentage CFB - 24 weeks results (placebo switched to 100 mg q.d. at week 12, week 24): −8.19%
